Earlier results, collected in patent publication US20150231284A1, “MOLECULAR PROBE FOR IMAGING OF PANCREATIC ISLET AND THE PRECURSOR, AND USE OF THE SAME” (Kyoto University, priority 2009, published 2015).

Tests used:
[1] = tested on: pancreatic islet cells; conditions: Document 2; cited from earlier work
[2] = tested on: GLP-1R-positive tumor cells; conditions: Document 2; cited from earlier work

Substance: Lys^40(Ahx-DTPA-^111In)Exendin-4(9-39)
- uptake in pancreatic islets [1]: about 0.4%
- uptake in the GLP-1R-positive tumor cells [2]: about 7.5%
